# Results published in publication PMC9967674, “Characterization and Functional Analysis of OcomOBP7 in Ophraella communa Lesage” (Insects, 2023).
# Assays:
# OcomOBP7 [1] = assay: Fluorescence competitive binding assay (1-NPN displacement); design: species or system Ophraella communa; details: 1-NPN 2 μM; for Ki: Ki = [IC50]/(1 + [1-NPN]/K1-NPN), OcomOBP7 2 μM, pH 7.4, read-out: Ki (dissociation constant); for IC50: recombinant OcomOBP7 2 μM, 50 mM Tris-HCl pH 7.4, ligand 2–20 μM
# Description: Based on previous research on the volatiles of A. artemisiifolia, 26 standard chemical odors were selected to verify the binding characteristics of OcomOBP7 using a fluorescence binding assay (Table 2).
# (§1) Fluorescence competition binding experiments were performed using an F-380 fluorescence spectrophotometer (Gangdong Technology, Tianjin, China), and the quartz cuvette was 1 cm wide. The excitation and emission slits were 10 nm, the sensitivity was 2 s, the emission wavelength range was 360–500 nm, the excitation wavelength was 337 nm, and the scanning speed was 1200 nm/min. The fluorescent probe, 1-NPN, was dissolved in a chromatographic methanol solution at a concentration of 1 mM. The target protein was diluted to 2 μM with 50 mM Tris-HCl (pH 7.4), and 1 mL of protein diluent was added to the cuvette. The 1-NPN fluorescent probe was added to the protein diluent to obtain a final concentration of 2–20 μM and was allowed to stand for 30 s after mixing. The maximum fluorescence value for each addition of 1-NPN was recorded, and three replicates were used. The 1-NPN fluorescent probe was added to the protein diluent at a final concentration of 2 μM, mixed well, and allowed to stand for 30 s. The maximum fluorescence intensity of 1-NPN was recorded. The odorant ligand was then added at a final concentration of 2–20 μM, and the maximum fluorescence value produced by the mixed solution was determined.
# The dissociation constants Ki of OcomOBP7 and the fluorescent ligand compounds were calculated using the Scatchard equation. The formula is as follows: Ki = [IC50]/(1 + [1-NPN]/K1-NPN), where [1-NPN] represents the concentration of unbound 1-NPN, and K1-NPN is the binding constant of the OcomOBP7/1-NPN complex.
# O. communa antennae [2] = tested on: O. communa antennae; design: method as in a previous experiment; details: ref a previous experiment; cited from earlier work
# OcomOBP7 [3] = assay: Binding of fluorescent probe 1-NPN to OcomOBP7 (binding curve, Scatchard); design: species or system Ophraella communa; details: OcomOBP7 2 μM, 1-NPN 2–20 μM, pH 7.4; read-out: binding constant (Kd) of the protein and probe 1-NPN
# Description: as §1
# The dissociation constants Ki of OcomOBP7 and the fluorescent ligand compounds were calculated using the Scatchard equation. […]
# O. communa antennae [4] = assay: Electroantennography (EAG) after RNAi; type: in vivo, Ophraella communa; details: odorant 10 μg/μL in n-hexane, 10 μL; for EAG response of O. communa antennae: after injection of dsRNA (dsOBP7), 48 h; for average EAG response of O. communa antennae: dsEGFP control group, 48 h after injection
# Description: dsRNA templates were synthesized by PCR using primers containing the T7 promoter sequence as templates. dsRNA was synthesized in vitro using a T7 RNAi Transcription Kit (Ambion Inc., Waltham, MA, USA) according to the manufacturer’s instructions. dsRNA was dissolved in DEPC water and its concentration determined using a Nanophotometer P330 (Implen, Germany). The quality of RNA was determined using 1% gel electrophoresis. Female and male adults with an initial emergence of <12 h were injected. A Nanoliter 2000 microinjector (WPI, Sarasota, FL, USA) was used to inject 1 ng of dsRNA into the pronotum of beetles. dsEGFP was used as a control. After injection, the beetles were kept in Petri dishes and fed fresh A. artemisiifolia leaves daily.
# Based on the fluorescence binding experimental results, α-pinene, ocimene, and myrcene were used for the electrophysiological experiments. […] Therefore, the odorants in this experiment were dissolved in n-hexane at a final concentration of 10 μg/μL, with n-hexane alone serving as a blank control. Filter paper strips with 10 μL of odorant were placed in a Pasteur Pipette for EAG experiments. The head and end of one antenna of the O. communa adult were cut off with a blade 48 h after the injection of dsRNA. A glass electrode filled with KCl conductivity liquid was inserted into the incision of the head of the O. communa and then connected to the electroantennogram system. The antenna incision was connected to a glass electrode at the other end using a micromanipulator. Each odorant was stimulated for 0.2 s with an interval of more than 30 s. Each treatment consisted of more than 20 biological replicates. Finally, the response curve was recorded using the EAG2000 software.
# O. communa = tested on: O. communa; design: method as in previous experiment results (unpublished data); details: ref previous experiment results (unpublished data); cited from earlier work
Molecule,Ki (OcomOBP7 [1]) [µM],IC50 (OcomOBP7 [1]) [µM],activation of antennal response via the EAG method (O. communa antennae [2]),Kd (OcomOBP7 [3]) [µM],EAG response of O. communa antennae (O. communa antennae [4]),average EAG response of O. communa antennae (O. communa antennae [4]),attraction of the beetles (O. communa)
C=C(C)[C@H]1CC=C(C)CC1 [(R)-(+)-Dipentene],2.22 ± 0.11,3.5,,,,,
c1ccc(Nc2cccc3ccccc23)cc1 [1-NPN],,,,1.47 ± 0.2,,,
CC1=CCC(C(C)C)=CC1 [Y-Terpinene],4.7 ± 0.32,7.42,,,,,
CC(=O)OC1CC2CCC1(C)C2(C)C (stereo not drawn) [Bornyl acetate],20.37 ± 0.07,32.2,,,,,
C=C(C)C1CC=C(C)CC1 (racemic) [DL-Limonene],2.84 ± 0.2,4.48,,,,,
C=C1CCC2(C(C)C)CC12 (stereo not drawn) [Sabinene],4.75 ± 0.14,7.49,,,,,
C=C1C2CCC(C2)C1(C)C (stereo not drawn) [Camphene],9.85 ± 0.66,15.5,,,,,
C=CC(C)=CCC=C(C)C [Ocimene],1.23 ± 0.11,1.94,,,0.14 ± 0.01,0.19 ± 0.01,significantly attract

# The next lines start with results.
Ki (OcomOBP7 [1]) [µM],IC50 (OcomOBP7 [1]) [µM],Molecule,activation of antennal response via the EAG method (O. communa antennae [2]),Kd (OcomOBP7 [3]) [µM],EAG response of O. communa antennae (O. communa antennae [4]),average EAG response of O. communa antennae (O. communa antennae [4]),attraction of the beetles (O. communa)
0.48 ± 0.04,0.76,C=CC(=C)CC/C=C(\C)CCC=C(C)C [(E)-β-farnesene],cannot activate the antennal response,,,,
3.97 ± 0.85,6.26,C=CC(=C)CCC=C(C)C [Myrcene],,,0.09 ± 0.01,0.10 ± 0.01,significantly attract
2.91 ± 0.42,4.59,CC1=CC[C@H](C(C)C)C=C1 [α-phellandrene],,,,,
10.9 ± 0.59,17.2,C=C1CCC2CC1C2(C)C (stereo not drawn) [β-Pinene],,,,,
6.55 ± 0.05,10.3,CC1=CCC2CC1C2(C)C (stereo not drawn) [α-Pinene],,,0.28 ± 0.02,0.36 ± 0.03,significantly attract
2.55 ± 0.4,4.02,(S)-(-)-Limonene,,,,,
0.67 ± 0.12,1.05,CCCCCCCC [n-Octane],,,,,
